Results taken from the supplement of paper PMC13380429.

Legend:
Settings in all cases: 72 h
Caco-2 [1] = experiment: cell viability relative to DMSO; higher = less toxic
Calu-3 [2] = experiment: as above
HepG2 [3] = experiment: as above
U2OS [4] = experiment: as above
Vero E6 [5] = experiment: as above
Calu-3 [6] = experiment: relative viability EC50 (midpoint between 100% and the lowest measured viability); higher = less toxic
HepG2 [7] = experiment: as above
U2OS [8] = experiment: as above
Vero E6 [9] = experiment: as above
Caco-2 [10] = experiment: drug sensitivity score (DSS) for viability; higher = more toxic; extreme values may be limits of the assay
Calu-3 [11] = experiment: as above
HepG2 [12] = experiment: as above
U2OS [13] = experiment: as above
Vero E6 [14] = experiment: as above
Caco-2 [15] = experiment: relative viability EC50 (midpoint between 100% and the lowest measured viability); higher = less toxic

SMILES	cell viability (Caco-2 [1]; 1 nM) [%]	cell viability (Caco-2 [1]; 10 nM) [%]	cell viability (Caco-2 [1]; 100 nM) [%]	cell viability (Caco-2 [1]; 1000 nM) [%]	cell viability (Caco-2 [1]; 10000 nM) [%]	cell viability (Calu-3 [2]; 1 nM) [%]	cell viability (Calu-3 [2]; 10 nM) [%]	cell viability (Calu-3 [2]; 100 nM) [%]	cell viability (Calu-3 [2]; 1000 nM) [%]	cell viability (Calu-3 [2]; 10000 nM) [%]	cell viability (HepG2 [3]; 1 nM) [%]	cell viability (HepG2 [3]; 10 nM) [%]	cell viability (HepG2 [3]; 100 nM) [%]	cell viability (HepG2 [3]; 1000 nM) [%]	cell viability (HepG2 [3]; 10000 nM) [%]	cell viability (U2OS [4]; 1 nM) [%]	cell viability (U2OS [4]; 10 nM) [%]	cell viability (U2OS [4]; 100 nM) [%]	cell viability (U2OS [4]; 1000 nM) [%]	cell viability (U2OS [4]; 10000 nM) [%]	cell viability (Vero E6 [5]; 1 nM) [%]	cell viability (Vero E6 [5]; 10 nM) [%]	cell viability (Vero E6 [5]; 100 nM) [%]	cell viability (Vero E6 [5]; 1000 nM) [%]	cell viability (Vero E6 [5]; 10000 nM) [%]	relative viability EC50 (Calu-3 [6]) [µM]	relative viability EC50 (HepG2 [7]) [µM]	relative viability EC50 (U2OS [8]) [µM]	relative viability EC50 (Vero E6 [9]) [µM]	drug sensitivity score (Caco-2 [10])	drug sensitivity score (Calu-3 [11])	drug sensitivity score (HepG2 [12])	drug sensitivity score (U2OS [13])	drug sensitivity score (Vero E6 [14])	relative viability EC50 (Caco-2 [15]) [µM]
FC(F)(F)c1cc(NC(=S)Nc2ccc(Br)cc2-c2nnn[nH]2)cc(C(F)(F)F)c1	96.6	106	95.3	88.7	57.9	98.8	102	101	103	99.3	99.3	92.7	98.7	90.4	85.6	99.9	104	97.7	97.6	97.5	95.8	102	93.3	102	83	> 10	> 10	> 10	> 10	3.7	0	0.2	0	0.3	–
N[C@@H](C(=O)O)c1cc(O)ccc1Cl [CHPG]	94.2	91.7	94.8	98.7	96	–	–	–	–	–	–	–	–	–	–	97.6	99	98.5	104	103	94.9	93.4	92.2	94.6	108	–	–	> 10	> 10	0	–	–	0	0	> 10
Cc1ccc(NCCCc2ccccc2)c(N)c1 [NFKB-activation-inhibitor-II]	89.4	85	92.6	98.4	79.9	90	93.8	94.7	103	84.1	110	97.1	103	98.2	100	98.9	102	94.9	102	93.2	–	–	–	–	–	> 10	> 10	> 10	–	0	0.1	0	0	–	> 10
c1cc(Nc2cc(C3CC3)n[nH]2)nc(Nc2ccc3[nH]cnc3c2)n1 [APY-29]	88.9	101	94.7	94.8	72.5	98.1	100	102	37.8	66.9	96.4	94.2	93.1	14.2	5.2	95.2	102	100	55.4	5.4	101	94.1	93.5	86.9	13.8	0.337	0.339	1.05	1.97	1.9	11.2	16.6	10.9	7	–
CCCCOc1ccc(CC/C=C2\SC(=O)N(CCN)C2=O)cc1 [K145]	97.9	106	95.1	91.2	73.9	92.1	108	87.1	101	92.5	107	102	95	95.4	82.7	89.3	97.1	91.4	93.1	83.1	108	103	101	104	92	> 10	> 10	> 10	> 10	1.7	0	0.6	0	0	–
Cc1cc(C(=O)Nc2nc3cccc(Cl)c3n2[C@@H]2CCCCN(C(=O)/C=C/CN(C)C)C2)ccn1 [EGF816]	95.5	94.3	98.1	93.7	72.3	102	95.9	86.9	51.6	24.6	107	100	96	94.5	32.1	101	98.9	99.3	98.4	77.3	104	106	102	82.1	36.8	0.512	2.5	> 10	1.45	2.1	10.8	4.6	1	6.2	–
C[C@H](Cc1ccc(O)c(O)c1)[C@@H](C)Cc1ccc(O)c(O)c1 [masoprocol]	88.3	83.1	72.1	78.6	55.5	95.5	108	93.4	93.6	93	98.3	94	94.5	101	97.1	92.1	104	97.7	97.8	95.9	102	91.6	88.6	91.5	81.3	> 10	> 10	> 10	> 10	9.6	0	0	0	1.4	–
C=C1CC/C=C(\C)CC[C@@H]2[C@@H]1CC2(C)C [g-caryophyllene]	109	112	97.3	121	80.6	–	–	–	–	–	105	95.5	113	104	94.9	92.8	101	95.3	99.9	99	103	89.3	104	94.8	100	–	> 10	> 10	> 10	0.2	–	0	0	0	> 10
S=C(NCCc1ccccn1)Nc1ccc(Br)cn1 [trovirdine]	94.9	91.6	98.4	90	98.1	89.2	96.2	101	102	108	103	105	102	106	92.1	104	100	98.4	104	98.7	–	–	–	–	–	> 10	> 10	> 10	–	0	0	0	0	–	> 10
CC(C)(C)NC(=O)[C@@H]1C[C@@H]2CCCC[C@@H]2CN1C[C@@H](O)[C@H](Cc1ccccc1)NC(=O)[C@H](CC(N)=O)NC(=O)c1ccc2ccccc2n1 [saquinavir]	101	87.9	95.7	90.4	72.4	96.8	104	93.2	102	109	91.8	90.1	100	82.2	84.3	101	101	100	103	89.8	103	101	104	85.1	101	> 10	> 10	> 10	> 10	1.9	0	1	0	0	–
COc1ccc(C2=N[C@@H](c3ccc(Cl)cc3)[C@@H](c3ccc(Cl)cc3)N2C(=O)N2CCNC(=O)C2)c(OC(C)C)c1 [nutlin-3]	94.2	92.1	92.5	97.9	89.1	91.6	98.1	89.7	92.4	108	104	115	109	89.7	35	94.7	93.6	95.3	98.7	75.2	106	98.9	94.5	97.5	63.7	> 10	1.95	> 10	–	0	0	5.3	1.1	2.1	> 10
c1cc(-c2cnn3cc(-c4ccc(N5CCNCC5)cc4)cnc23)c2cccnc2c1	93.9	99.7	102	95.1	20.6	109	104	97.4	111	6.2	108	101	97.2	102	74.9	97.4	93.2	95.9	87.2	1.5	92.4	99	92.6	87.7	69.3	3.69	–	2.11	–	5.1	4.5	0.8	7.6	2.5	2.67
c1cnc(SCc2cccnc2)nc1 [tasuldine]	96.5	96.9	101	94.8	101	–	–	–	–	–	105	105	105	106	97.9	101	96.3	101	94.3	99.9	105	98.5	96.7	102	99.7	–	> 10	> 10	> 10	0	–	0	0	0	> 10
N#Cc1ccnc(N2C(=O)CC[C@H]2C(=O)N(c2cncc(F)c2)[C@H](C(=O)NC2CC(F)(F)C2)c2ccccc2Cl)c1 [ivosidenib]	105	97.6	94.2	93	104	98.8	109	93.7	104	97.3	97.5	97.7	95.1	106	98.7	104	100	104	101	98.3	–	–	–	–	–	> 10	> 10	> 10	–	0	0	0	0	–	> 10
CC(C)N1CCN(c2ccc(C(=O)c3c(-c4ccc(O)cc4)sc4cc(O)ccc34)cc2)CC1 [Y-134]	99.5	102	100	98.7	81.4	96	96.2	101	102	72.4	113	101	94	104	72.3	102	98.5	99	97.1	91.8	101	104	102	103	82.8	–	–	> 10	> 10	0.6	1	0.9	0	0.3	> 10
